The test system of one data set is Glioma 26. Kind of data set: Control experiment with cold InCl3, intratumor. Type of data set: in vivo, C57 BL/6 mice. The following applies: for Host weight / Tumor size: cold, i.t. How it is done: Two control experiments were made with cold InCl3 (InCl3 that had been stored for 4 weeks and was practically nonradioactive, pH=1-3) and cold In-BLMC (prepared with nonradioactive InCl3 by the same method as that used for ^111 In-BLMC, final pH=1.5-3.0). At a tumor age of 6 days, ip injections were given daily for 3 days: Group VII (n=5)--0.2 ml of 0.9% NaCl; Group VIII (n=5)--In-BLMC carried by 0.004 mg BLM/g tumor weight in 0.2 ml of 0.9% NaCl. At a tumor age of 13 days, single doses were given it: Group IX (n=2)--0.7 ml of 0.9% NaCl/g tumor weight; Group X (n=3)--InCl, 0.7 ml/g tumor weight.
The tumor size (product of the three dimensions in mm^3) and body weight were measured daily for 16 days following the first injection. Host weight was obtained by subtracting tumor weight from body weight, where tumor weight (g)=tumor size (d1 d2 d3, mm^3)×0.00053

The next data set relates to glioma. The experiment in a line: Gamma images - tumor imaging in glioma-bearing mice. Type of data set: in vivo. The following applies: 24 hr after i.p. injection. The source says:
The 2- to 3-week-old glioma-bearing mice (tumor size: 1.0-1.5 cm) were given injections of ^111 In-BLMC, ^67 Ga-citrate, or ^111 In-BLM into the orbital sinus (or by ip injection). Images were taken with a gamma camera (Raytheon) immediately, 1, 2, 4, 24, and 48 hr after injection by using a pinhole collimator (1/4 inch diameter), with the distance of 12 cm between mouse and collimator. ^111 In-BLM, and ^111 In-BLMC were obtained according to Examples II and III; ^67 Ga-citrate was commercially obtained from New England Nuclear (NEN), Boston, Mass.

Data set [1] is described as follows: Whole body activity retained / excretion in normal mice. The following applies: ip. Type of data set: in vivo, C57BL/6 mice. How it is done: Male 6-week-old C57BL/6 untreated, not tumor-bearing, mice were given intraperitoneal (ip) injectons of 30-40 μCi of ^111 InCl3, ^111 In-BLM-B2, ^111 In-BLM, ^111 In-BLMC or ^57 Co-BLM. At 1, 2, 4, 24, 48, and 72 hr after injection of the radiopharmaceutical, the animal was made to urinate and then the whole body activity was measured in a dose calibrator (FIG. 8).

Another data set relates to serum transferrin. Kind of data set: Binding to serum transferrin, in vitro mixtures with plasma (gel electrophoresis). On the set-up: species or system mice. How it is done: Solutions of ^111 In-BLM, ^111 In-BLM-B2, ^111 -In-BLM-A2, ^111 In-BLMC and ^57 Co-BLM were analyzed by TLC using 10% ammonium acetate-methanol (1:1 v/v) as the eluant. After applying 0.2 μl of the samples, cold air was blown over the plate for 1-2 minutes. The plate was placed in a TLC cylinder containing freshly prepared eluant and the cylinder immediately covered with a glass plate. All cylinders were enclosed in a sealed plastic bag together with an open beaker containing eluant in order to maintain a saturated atmosphere. One to three, 48-hour urine samples from normal or gliomabearing mice given injections of ^111 In-BLM or one of its fractions were also analyzed by this TLC procedure. The same urine samples were also analyzed by gel electrophoresis on 5% agarose (Sigma or BRL low EEO) (Hoch, et al Anal Biochem. 78: 312-317, 1977). The aqueous gel was equilibrated against Co2 -saturated 0.02M NaHCO3 and the electrode chambers contained CO2 -saturated 0.1M NaHCO3. […] In vitro mixtures of 5 parts urine from untreated mice and 1 part of solution of ^111 In-BLM or its fraction were similarly analyzed immediately after mixing. […] The same gel electrophoresis procedure was used for ^111 In-BLM, ^111 In-BLMC, ^111 In-BLM-A2, ^111 In-BLM-B2 and ^57 Co-BLM; the dried plates were autoradiographed or analyzed with radiochromatogram scanner. […]

“Also recorded” adds a separate entry of the source.

Regarding `[Cl][In]([Cl])[Cl]` [InCl3], the “Tumor size vs NaCl, comparison” value in the data set with Glioma 26 (cold InCl3 i.t.) is “did not affect glioma; also recorded: the tumor sizes increased and were similar”. The Host weight was 20.3 ± 2.5 g with Glioma 26 (day 0 after therapy); 20.4 ± 1.6 g in the data set on Glioma 26 (day 1 after therapy); 20.0 ± 1.6 g in the data set with Glioma 26 (day 2 after therapy); 20.0 ± 1.5 g in the data set with Glioma 26 (day 3 after therapy); 20.0 ± 1.5 g with Glioma 26 (day 4 after therapy); 19.9 ± 1.6 g in the data set on Glioma 26 (day 5 after therapy). The Host weight with Glioma 26 (day 6 after therapy) amounted to 17.9 ± 1.9 g; in the data set on Glioma 26 (day 7 after therapy), 18.8 ± 2.9 g; in the data set on Glioma 26 (day 8 after therapy) it was 19.1 ± 2.4 g; in the data set on Glioma 26 (day 9 after therapy), 20.3 ± 3.8 g. Besides, the Tumor size came to 1238 ± 711 mm^3 with Glioma 26 (day 0 after therapy); 1741 ± 701 mm^3 in the data set on Glioma 26 (day 1 after therapy); 1998 ± 559 mm^3 with Glioma 26 (day 2 after therapy); 2496 ± 395 mm^3 in the data set on Glioma 26 (day 3 after therapy); 2720 ± 503 mm^3 in the data set on Glioma 26 (day 4 after therapy); 3333 ± 276 mm^3 with Glioma 26 (day 5 after therapy). For the same molecule, the Tumor size stood at 3882 ± 501 mm^3 in the data set on Glioma 26 (day 6 after therapy), 5015 ± 936 mm^3 in the data set with Glioma 26 (day 7 after therapy), 5234 ± 1146 mm^3 with Glioma 26 (day 8 after therapy) and 5988 ± 492 mm^3 in the data set with Glioma 26 (day 9 after therapy).

For `O=C([O-])CC(O)(CC(=O)[O-])C(=O)[O-].[67Ga+3]` [^67 Ga-citrate], in the data set on glioma, the “Accumulation of radioactivity in tumor (gamma images)” value is “higher for ^111 In-BLMC (FIG. 9e) than that for ^67 Ga-citrate (FIG. 9d)”; the “Activity in liver and background (gamma images)” value is “lower for ^111 In-BLMC than those for ^67 Ga-citrate or ^111 In-BLM”.

As for `[Cl][111In]([Cl])[Cl]` [^111 InCl3], the “Rate of excretion (from percent activity retained)” value in data set [1] is “rate of excretion increased in the following order, reflecting descreasing binding capacity for transferrin: ^111 InCl3, ^111 In-BLM-B2, ^111 In-BLM, ^57 Co-BLM, ^111 In-BLMC”. Further, the Binding to transferrin result with serum transferrin is listed as “binds to serum transferrin in vitro”.

Values taken from patent publication US4620971A, “Indium-bleomycin complex” (The United States of America as represented by the …, priority 1983, dated 1986).
